Reference: the NIST ThermoML archive (doi:10.1016/j.jct.2009.11.010)

Assays:
[1] = Molar enthalpy of transition or fusion; settings: Crystal; Adiabatic calorimetry
[2] = molar heat capacity at constant pressure; settings: 101.33 kPa, Vacuum adiabatic calorimetry
[3] = molar heat capacity at saturation pressure; settings: Vacuum adiabatic calorimetry
[4] = for vapor or sublimation pressure: Inclined piston gauge

c1ccc2nc3ccccc3nc2c1 [phenazine]
Settings	Molar enthalpy of transition or fusion [kcal/mol]
[1]	5.956

Settings	Triple point temperature [K]	molar heat capacity [J/K/mol]	molar heat capacity at constant pressure [J/K/mol]	vapor or sublimation pressure [kPa]
[2], 5 K, Crystal	–	–	0.38	–
[2], 10 K, Crystal	–	–	2.76	–
[2], 20 K, Crystal	–	–	13.34	–
[2], 30 K, Crystal	–	–	25.08	–
[2], 40 K, Crystal	–	–	35.19	–
[2], 50 K, Crystal	–	–	43.5	–
[2], 60 K, Crystal	–	–	50.49	–
[2], 70 K, Crystal	–	–	56.66	–
[2], 80 K, Crystal	–	–	62.3	–
[2], 90 K, Crystal	–	–	67.8	–
[2], 100 K, Crystal	–	–	73.23	–
[2], 120 K, Crystal	–	–	84.23	–
[2], 140 K, Crystal	–	–	95.77	–
[2], 160 K, Crystal	–	–	107.87	–
[2], 180 K, Crystal	–	–	120.51	–
[2], 200 K, Crystal	–	–	133.66	–
[2], 220 K, Crystal	–	–	147.13	–
[2], 240 K, Crystal	–	–	160.98	–
[2], 260 K, Crystal	–	–	175.01	–
[2], 280 K, Crystal	–	–	188.99	–
[2], 298.15 K, Crystal	–	–	201.63	–
[2], 300 K, Crystal	–	–	202.93	–
[2], 320 K, Crystal	–	–	216.89	–
[2], 340 K, Crystal	–	–	230.56	–
[2], 360 K, Crystal	–	–	244.06	–
[2], 380 K, Crystal	–	–	257.36	–
[2], 400 K, Crystal	–	–	270.46	–
[2], 420 K, Crystal	–	–	283.41	–
[2], 440 K, Crystal	–	–	296.01	–
[2], 447.91 K, Crystal	–	–	300.87	–
[2], 447.91 K, Liquid	–	–	331.96	–
[2], 460 K, Liquid	–	–	337	–
[2], 480 K, Liquid	–	–	345.14	–
[2], 500 K, Liquid	–	–	353.07	–
[2], 520 K, Liquid	–	–	360.67	–
[3], 6.135 K, Crystal	–	0.71	–	–
[3], 7.091 K, Crystal	–	1.09	–	–
[3], 8.146 K, Crystal	–	1.57	–	–
[3], 9.073 K, Crystal	–	2.09	–	–
[3], 9.999 K, Crystal	–	2.77	–	–
[3], 11.1 K, Crystal	–	3.68	–	–
[3], 12.32 K, Crystal	–	4.78	–	–
[3], 13.68 K, Crystal	–	6.14	–	–
[3], 15.19 K, Crystal	–	7.78	–	–
[3], 16.85 K, Crystal	–	9.645	–	–
[3], 18.69 K, Crystal	–	11.81	–	–
[3], 20.75 K, Crystal	–	14.23	–	–
[3], 23.04 K, Crystal	–	16.99	–	–
[3], 25.58 K, Crystal	–	20	–	–
[3], 28.4 K, Crystal	–	23.28	–	–
[3], 31.54 K, Crystal	–	26.77	–	–
[3], 35.04 K, Crystal	–	30.43	–	–
[3], 38.95 K, Crystal	–	34.21	–	–
[3], 43.3 K, Crystal	–	38.1	–	–
[3], 48.12 K, Crystal	–	42.05	–	–
[3], 52.7 K, Crystal	–	45.41	–	–
[3], 53.49 K, Crystal	–	46.07	–	–
[3], 57.63 K, Crystal	–	48.91	–	–
[3], 59.46 K, Crystal	–	50.14	–	–
[3], 63.45 K, Crystal	–	52.68	–	–
[3], 69.82 K, Crystal	–	56.56	–	–
[3], 76.91 K, Crystal	–	60.58	–	–
[3], 84.71 K, Crystal	–	64.9	–	–
[3], 93.41 K, Crystal	–	69.64	–	–
[3], 102.69 K, Crystal	–	74.69	–	–
[3], 112.24 K, Crystal	–	79.93	–	–
[3], 121.98 K, Crystal	–	85.34	–	–
[3], 131.78 K, Crystal	–	90.96	–	–
[3], 141.72 K, Crystal	–	96.78	–	–
[3], 148.27 K, Crystal	–	100.69	–	–
[3], 151.74 K, Crystal	–	102.79	–	–
[3], 157 K, Crystal	–	106	–	–
[3], 161.79 K, Crystal	–	108.99	–	–
[3], 166.83 K, Crystal	–	112.14	–	–
[3], 176.79 K, Crystal	–	118.44	–	–
[3], 186.88 K, Crystal	–	124.97	–	–
[3], 197.06 K, Crystal	–	131.7	–	–
[3], 207.29 K, Crystal	–	138.54	–	–
[3], 217.54 K, Crystal	–	145.45	–	–
[3], 227.79 K, Crystal	–	152.5	–	–
[3], 238.02 K, Crystal	–	159.59	–	–
[3], 248.23 K, Crystal	–	166.76	–	–
[3], 258.43 K, Crystal	–	173.9	–	–
[3], 268.62 K, Crystal	–	181.08	–	–
[3], 278.79 K, Crystal	–	188.12	–	–
[3], 288.98 K, Crystal	–	195.25	–	–
[3], 292.45 K, Crystal	–	197.59	–	–
[3], 299.09 K, Crystal	–	202.31	–	–
[3], 303.14 K, Crystal	–	205.11	–	–
[3], 315.26 K, Crystal	–	213.62	–	–
[3], 327.34 K, Crystal	–	221.93	–	–
[3], 339.58 K, Crystal	–	230.27	–	–
[3], 341.22 K, Crystal	–	231.31	–	–
[3], 351.33 K, Crystal	–	238.27	–	–
[3], 362.68 K, Crystal	–	245.89	–	–
[3], 375.17 K, Crystal	–	254.22	–	–
[3], 383.74 K, Crystal	–	259.84	–	–
[3], 387.73 K, Crystal	–	262.47	–	–
[3], 394.22 K, Crystal	–	266.7	–	–
[3], 400.35 K, Crystal	–	270.7	–	–
[3], 404.56 K, Crystal	–	273.47	–	–
[3], 413.04 K, Crystal	–	278.97	–	–
[3], 415.93 K, Crystal	–	280.86	–	–
[3], 426.29 K, Crystal	–	287.62	–	–
[3], 428.38 K, Crystal	–	288.92	–	–
[3], 438.38 K, Crystal	–	296.29	–	–
[3], 439.14 K, Crystal	–	296.66	–	–
[3], 453.29 K, Liquid	–	334.17	–	–
[3], 455.84 K, Liquid	–	335.26	–	–
[3], 456.63 K, Liquid	–	335.61	–	–
[3], 460.6 K, Liquid	–	337.14	–	–
[3], 461.49 K, Liquid	–	337.63	–	–
[3], 475.45 K, Liquid	–	343.31	–	–
[3], 490.19 K, Liquid	–	349.18	–	–
[3], 504.28 K, Liquid	–	354.75	–	–
[3], 510.36 K, Liquid	–	357.26	–	–
[3], 516.76 K, Liquid	–	359.48	–	–
[4], 389.95 K, Crystal	–	–	–	0.0331
[4], 400.01 K, Crystal	–	–	–	0.0682
[4], 410 K, Crystal	–	–	–	0.1346
[4], 420 K, Crystal	–	–	–	0.2572
[4], 430 K, Crystal	–	–	–	0.476
[4], 449.96 K, Liquid	–	–	–	1.444
[4], 454.97 K, Liquid	–	–	–	1.754
[4], 460.06 K, Liquid	–	–	–	2.127
[4], 464.96 K, Liquid	–	–	–	2.548
[4], 469.96 K, Liquid	–	–	–	3.05
[4], 471.96 K, Liquid	–	–	–	3.273
[4], Crystal, Adiabatic calorimetry	447.91	–	–	–
